Test results from patent US20230247992A1, “ARTHROPOD CONTROL COMPOSITION” (Firmenich SA, priority 2020, published 2023).

Legend:
Format in all cases: in vivo
[1] = system: Aedes aegypti; assay: in vitro Warm Body assay, substance introduced in the cage air by forced evaporation (spatial repellence)
Procedure: (§1) The controlling effect, repellence & spatial repellence, according to the present invention is determined by testing the Warm Body assay against the yellow fever mosquito, Aedes aegypti Rockefeller strain. […] Observations of controlling efficacy were made on host-seeking females of uniform age, 5 to 10 days old selected as mentioned in the publication mentioned hereinabove. Tested hungry females had access to 10% sugar solution but were not blood-fed. Further information is provided in the accompanying examples.
(§2) The published protocol has been adapted in not manually counting the landing mosquitoes but automatically using an automatic counting software, the switch from Anopheles gambiae to A. aegypti led to a decrease of mosquitoes’ number placed in the tested cage due to the size difference (i.e. 30 mosquitoes instead of 50) and to an increase of lighting as A. aegypti is a diurnal mosquitoes (i.e. 150 lux instead of 4 lux). Further information is provided in the accompanying examples.,
(§3) The controlling effect of the compositions according to the present invention was assessed using an adapted Warm Body assay as defined in Kröber T, Kessler S, Frei J, Bourquin M, Guerin PM. 2010. An in vitro assay for testing mosquito controlling compounds employing a warm body and carbon dioxide as a behavioral activator. J Am Mosq Control Assoc. 26:381-386. In this in-vitro assay the number of mosquito landing on a warm body, simulating an attractive host treated with the tested stimuli, was measured in order to assess the repellence effect.
as §2, with “to Aedes” for “to A.”, “lux).” for “lux). Further information is provided in the accompanying examples.,”
(§4) In addition, since the inventors were interested by assessing spatial repellence added or not to a deterrent effect, the substance was applied using two different technics. Whether, as in Kröber et al. (2010), both deterrent and repellent effect were investigated (i.e. similar effect than most body care applications such as lotion) and the substances was applied on a sandblasted glass Petri dish placed on top of the warm body. Whether only the spatial repellence was investigated (i.e. similar effect than most home care applications such as liquid electric dispenser) and the substance was introduced in the cage space thanks to a forced evaporation system as described in Chappuis C J-F, Niclass Y, Vuilleumier C, Starkenmann C. 2015. Quantitative Headspace Analysis of Selected Odorants from Latrines in Africa and India. Environ. Sci. Technol. 49:6134-6140.
(§5) As stated in Kröber et al. (2010), selected 10-12 days old hungry females, that had ad libitum access to 10% sugar solution but were not blood-fed, were selected for the assay.
The forced evaporation system allows to fill the volume of the cage with stimuli tested, (2-methyl-4-oxo-3-prop-2-ynylcyclopent-2-en-1-yl) 2,2-dimethyl-3-(2-methylprop-1-enyl)cyclopropane-1-carboxylate (prallethrin) and N,N-diethyl-3-methylbenzamide (DEET) being used as benchmarks. In order to limit potential dead volumes in the cage, five flushes of the cage were made before starting the 2 minutes test during which the number of mosquito landings was counted.

[2] = system: Aedes aegypti; assay: in vitro Warm Body assay, substance applied on glass Petri dish on top of the warm body (deterrence and repellence)
Procedure: as §1, §2, §3
as §2, with “to Aedes” for “to A.”, “lux).” for “lux). Further information is provided in the accompanying examples.,”
as §4, §5
On the sandblasted glass Petri dish covering the warm body (28.3 cm^2), 100 µL of the substances diluted at different concentrations in ethanol was applied. The number of mosquito landing on the warm body was counted for each stimuli, N,N-diethyl-3-methylbenzamide (DEET) and ethyl 3-[acetyl(butyl)amino]propanoate (IR3535) being used as benchmarks and pure ethanol as control.

[3] = system: Ixodes ricinus; assay: whole plant or invertebrate
[4] = 0.0017 µg/L air, without substance 54.1±4.9
[5] = 0.017 µg/L air, without substance 54.1±4.9
[6] = 0.17 µg/L air, without substance 54.1±4.9
[7] = 1.7 µg/L air, without substance 54.1±4.9
[8] = 0.04% in ethanol, ethanol control 67.0±8.8 landings
[9] = 1% in ethanol, ethanol control 67.0±8.8 landings
[10] = […] in ethanol, ethanol control 67.0±8.8 landings
[11] = 0.04% in ethanol, ethanol control 59.3±6.9 landings
[12] = 0.04% in ethanol, ethanol control 67.1±9.1 landings
[13] = 1% in ethanol, ethanol control 59.3±6.9 landings
[14] = 1% in ethanol, ethanol control 67.1±9.1 landings
[15] = […] in ethanol, ethanol control 59.3±6.9 landings
[16] = […] in ethanol, ethanol control 67.1±9.1 landings

Row | SMILES | number of mosquitoes landing within 2 minutes on the warm body, air in the cage saturated with stimulus [1, 4] | number of mosquitoes landing within 2 minutes on the warm body, air in the cage saturated with stimulus [1, 5] | number of mosquitoes landing within 2 minutes on the warm body, air in the cage saturated with stimulus [1, 6] | number of mosquitoes landing within 2 minutes on the warm body, air in the cage saturated with stimulus [1, 7] | number of mosquitoes landing within 2 minutes on the warm body [2, 8] | number of mosquitoes landing within 2 minutes on the warm body [2, 9] | number of mosquitoes landing within 2 minutes on the warm body [2, 10] | number of mosquitoes landing within 2 minutes on the warm body [2, 11] | number of mosquitoes landing within 2 minutes on the warm body [2, 12] | number of mosquitoes landing within 2 minutes on the warm body [2, 13] | number of mosquitoes landing within 2 minutes on the warm body [2, 14] | number of mosquitoes landing within 2 minutes on the warm body [2, 15] | number of mosquitoes landing within 2 minutes on the warm body [2, 16] | also measured
1 | COc1ccc(COC(C)=O)cc1 [(4-methoxyphenyl)methyl acetate] | 18.0 | 26.5 | 34.5 | 28.0 | 27.0 | 9.0 | 59.0 | – | – | – | – | – | – | –
2 | CCN(CC)C(=O)c1cccc(C)c1 [N,N-diethyl-3-methylbenzamide, reference compound] | 35.0 | 28.0 | 24.0 | 1.5 | 5.1 | 2.6 | 44.9 | 5.1 | 5.1 | 2.6 | 2.6 | 44.9 | 44.9 | number of mosquitoes landing within 2 minutes on the warm body, air in the cage saturated with stimulus ([1]; 0.0017 µg/L air, without substance 54.7±3.2): 35.0; number of mosquitoes landing within 2 minutes on the warm body, air in the cage saturated with stimulus ([1]; 0.0017 µg/L air, without substance 56.0±3.6): 35.0; number of mosquitoes landing within 2 minutes on the warm body, air in the cage saturated with stimulus ([1]; 0.017 µg/L air, without substance 54.7±3.2): 28.0; number of mosquitoes landing within 2 minutes on the warm body, air in the cage saturated with stimulus ([1]; 0.017 µg/L air, without substance 56.0±3.6): 28.0; number of mosquitoes landing within 2 minutes on the warm body, air in the cage saturated with stimulus ([1]; 0.17 µg/L air, without substance 54.7±3.2): 24.0; number of mosquitoes landing within 2 minutes on the warm body, air in the cage saturated with stimulus ([1]; 0.17 µg/L air, without substance 56.0±3.6): 24.0; number of mosquitoes landing within 2 minutes on the warm body, air in the cage saturated with stimulus ([1]; 1.7 µg/L air, without substance 54.7±3.2): 1.5; number of mosquitoes landing within 2 minutes on the warm body, air in the cage saturated with stimulus ([1]; 1.7 µg/L air, without substance 56.0±3.6): 1.5; number of mosquitoes landing within 2 minutes on the warm body, air in the cage saturated with stimulus ([1]; 17 µg/L air, without substance 54.1±4.9): 3.0; number of mosquitoes landing within 2 minutes on the warm body, air in the cage saturated with stimulus ([1]; 17 µg/L air, without substance 54.7±3.2): 3.0; number of mosquitoes landing within 2 minutes on the warm body, air in the cage saturated with stimulus ([1]; 17 µg/L air, without substance 56.0±3.6): 3.0
3 | CCCCN(CCC(=O)OCC)C(C)=O [ethyl 3-[acetyl(butyl)amino]propanoate, reference compound] | – | – | – | – | 20.7 | 7.7 | 70.0 | 20.7 | 20.7 | 7.7 | 7.7 | 70.0 | 70.0 | mean percentage of ticks affected ([3]; 1 µg/cm^2, diluted in ethanol, ethanol control 0.6±0.5%): 33%; mean percentage of ticks affected ([3]; 1 µg/cm^2, diluted in ethanol, ethanol control 4.3±2.1%): 33%; mean percentage of ticks affected ([3]; 5 µg/cm^2, diluted in ethanol, ethanol control 0.6±0.5%): 67%; mean percentage of ticks affected ([3]; 5 µg/cm^2, diluted in ethanol, ethanol control 4.3±2.1%): 67%; mean percentage of ticks affected ([3]; 25 µg/cm^2, diluted in ethanol, ethanol control 0.6±0.5%): 91%; mean percentage of ticks affected ([3]; 25 µg/cm^2, diluted in ethanol, ethanol control 4.3±2.1%): 91%; pest or weed control at 0.04 µg/cm2, 0.04 µg/cm2 ([3]; Ixodes ricinus, 0.04 µg/cm^2, diluted in ethanol, ethanol control 0.6±0.5%, read-out: mean percentage of ticks affected): 13%; pest or weed control at 1 µg/cm2, 1 µg/cm2 ([3]; Ixodes ricinus, 1 µg/cm^2, diluted in ethanol, ethanol control 1.0±1.2%, read-out: mean percentage of ticks affected): 33%; pest or weed control at 5 µg/cm2, 5 µg/cm2 ([3]; Ixodes ricinus, 5 µg/cm^2, diluted in ethanol, ethanol control 1.0±1.2%, read-out: mean percentage of ticks affected): 67%; pest or weed control at 25 µg/cm2, 25 µg/cm2 ([3]; Ixodes ricinus, 25 µg/cm^2, diluted in ethanol, ethanol control 1.0±1.2%, read-out: mean percentage of ticks affected): 91%
4 | CCC=CCC1C(=O)CCC1CC(=O)OC (centres unmarked) [methyl 2-(3-oxo-2-pent-2-enylcyclopentyl)acetate] | – | 10.0 | 4.0 | 15.0 | 2.0 | 1.0 | 54.0 | – | – | – | – | – | – | –
